Source: US8962322B2, “Enhancers of induced pluripotent stem cell reprogramming” (City of Hope, priority 2012, dated 2015)

Columns and labels:
[1] = system: mouse embryonic fibroblasts (MEFs); test: iPSC derivation from 4F (OSKM)-transduced MEFs in mouse ESC media; format: cell-based
Procedure: The generation of iPSCs is a gradual process with relatively low efficiency. Since Oct4 is central to the reprogramming process (35, 36, 38), it was hypothesized that compounds that activate Oct4 transcription may facilitate iPSC generation by enhancing reprogramming efficiency. Reprogramming of mouse embryonic fibroblasts (MEFs) was performed with the 4F reprogramming quartet Oct4, Sox2, Klf4, and c-Myc, along with solvent control, OAC1 or its structural analogs OAC2 and OAC3. The same number of starting MEFs and the same viral stocks were used for each treatment. Two days after viral transduction, the 4F-transduced cells were seeded onto feeder cells in mouse ESC culture media, and this day was designated as day 0 (FIG. 2D). Compound treatment started on day 0 and lasted for 7 days. By counting the number of clones with ESC-like morphology at day 18, both OAC1 and its analogs OAC2 and OAC3 enhanced the 4F-induced reprogramming efficiency considerably. The number of colonies with ESC-like morphology (FIG. 2E) increased 2-fold or more in 4F plus OAC (4F+OAC) treatment, compared to the 4F treatment alone (FIG. 2F, Table 3).
iPSC Derivation in Mouse ESC Media: OG2/R26MEFs were seeded onto […] at the density of 4×10^4 cells per well in DMEM medium with 10% FBS, 0.1 mM non-essential amino acids (NEAA), and 0.1 mM L-glutamine, 24 hr before transduction. Freshly concentrated viruses of the four factors, Oct4, Sox2, c-Myc, and Klf4, were added to the cells. Two days after viral infection, the viral-transduced OG2/R26MEFs were split into new 6-well plates with irradiated MEF feeder cells and cultured in mouse ESC culture medium containing 15% ESC qualified FBS, 2 mM L-glutamine, 0.1 mM 2-mercaptoethanol, 0.1 mM NEAA, 1 mM sodium pyruvate and 1000 U/ml of leukemia inhibitory factor (LIF), and this day was defined as day 0. 1 μM of each compound (OAC1, OAC2, and OAC3) was added to the 4F-transduced cells at day 0 and treatment was continued for 1 week. When iPSC colonies emerged, these colonies were picked for expansion on irradiated MEF feeders in mouse ESC medium.

p53 = test: RT-PCR of p53 expression in treated MEFs; format: cell-based, mouse; conditions: MEFs treated for two days
Procedure: Inhibition of the p53-p21 signaling increased reprogramming efficiency (26, 28-31, 41). To investigate whether compound OAC1 enhanced reprogramming efficiency by affecting this pathway, MEFs were treated with vehicle control or OAC1 and determined the expression level of p53 and p21 in the treated cells.
(§1) RT-PCR analysis: Total RNA was purified with Trizol reagent (Invitrogen). Reverse transcription was performed with 1 μg of RNA using Omniscript® Reverse Transcription Kit (Qiagen). Quantitative PCR was performed using iTaq SYBR Green Supermix with Rox (Bio-rad) in Applied Biosystem Step one plus real-time PCR system. […]

endogenous Nanog = test: RT-PCR of endogenous Nanog mRNA in treated MEFs; format: cell-based, mouse; conditions: versus vehicle
Procedure: (§2) MEFs were treated with vehicle control or OAC 1 to test whether OAC 1 activates endogenous Oct4 and Nanog gene transcription. […] Oct4, Sox2, and Nanog are central to the transcriptional regulatory hierarchy for ESC pluripotency, forming the core transcriptional regulatory circuitry in ESCs (37). […] OAC1 activated Sox2 mRNA expression, along with Oct4 and Nanog (FIG. 61).
as §1

Sox2 = test: RT-PCR of Sox2 mRNA in treated MEFs; format: cell-based, mouse; conditions: versus vehicle
Procedure: as §2, §1

O=C(Nc1cc2cc[nH]c2cn1)c1ccccc1 [OAC1, N-(1H-6-azaindol-5-yl)benzamide]
advance of the appearance of putative iPSC colonies compared to 4F only reprogramming ([1]; 4F+OAC): about three to four
Colony numbers ([1]; MEFs in mouse ESC media, OSKM, seeding 3 × 10^4, day 18, 1 μM compound): 130
Reprogramming efficiency ([1]; MEFs in mouse ESC media, OSKM, seeding 3 × 10^4, day 18, colony numbers divided by seeding cell numbers): 0.43%
p53 expression level versus DMSO (p53): no significant difference
endogenous Nanog mRNA expression (endogenous Nanog): activated
Sox2 mRNA expression (Sox2): activated
